Data: patent publication US20110040170A1, “ENDOSCOPIC IMAGING PHOTODYNAMIC THERAPY SYSTEM AND METHODS OF USE” (YEDA RESEARCH AND DEVELOPMENT CO., LTD., priority 2008, published 2011)
Where “and” joins values, the source holds several entries; their conditions need not be identical. Identical values can stand only once. Entries after “also recorded” stand apart in the source; their conditions may differ.

How the values were obtained:
[1] = tested on: uterine horn; details: cited from earlier work
[2] = tested on: feto-placental unit; assay: Histological analysis of feto-placental units and adjacent uterus after in utero PDT; assay type: in vivo, Wistar rats; details: E16
Description: (iv) In vivo PDT protocol. A pregnant rat (E14) was anesthetized by isoflurane inhalation using the IMPAC6 system (VetEquip Inc., Pleasanton, Calif., USA) and placed on its back; the lower abdomen was shaved, washed with 70% ethanol and draped with sterile gauze. A midline incision (approximately 2 cm in length) in the lower abdomen was performed by cutting the skin and abdominal-muscle layers separately. Using round forceps, the uterus was gently drawn out from the abdominal cavity and placed on the gauze. The exposed uterus was continuously irrigated with sterile 0.9% NaCl solution during the procedure (for layout, see FIGS. 5A, 5B). One embryo was randomly selected for treatment and positioned with the placenta facing up. The laser beam was then directed to the exposed placental pole and the beam positioned for subsequent therapeutic illumination (6 mm light spot diameter) using the built-in visible (630 nm, 3 mW) aiming beam. No shielding of neighboring embryos was required. The photosensitizer PMRDA (50 μg/30 μl sterile saline) was delivered by trans-uterine injection (30G, 0.3 ml, insulin syringe) into the placenta. Following a drug/light time interval (DLTI) of 120 sec, illumination (100 mW/cm^2) was delivered (300 sec) to the placenta in a trans-uterine manner from above, perpendicular to the uterus (FIG. 5A). Upon completion of the PDT protocol, the uterus was eased back into the abdominal cavity. The abdominal facia was sutured using sterile 4-0 braided silk thread and the skin was clipped using 9 mm surgical clips. Anesthesia was discontinued and the rat was placed in a cage and closely monitored for at least 48 h. Animals received analgesia (Oxycod®, 6 ml/l) in their drinking water for at least 48 h. Controls: Dark control (DC): placental administration of photosensitizer without illumination. Light control (LC): placental sham injection of sterile vehicle (saline), followed by illumination with the respective light dose. Untreated control (UN): all untreated fetoplacental units in a treated rat.
(viii) Histology. […]

[3] = tested on: uterus; assay: Histological analysis of post-PDT uteri for long-term damage; assay type: in vivo, Wistar rats
Description: (viii) Histology. Following animal sacrifice, the abdomen was surgically opened, the uterus was tied-off at the cervix, removed and placed in Carnoy's fixative (6:3:1 ethanol, chloroform and acetic acid, by vol.), or Tris-buffered Zn fixative (2.8 mM calcium acetate, 22.8 mM zinc acetate, and 36.7 mM zinc chloride in 0.1M Tris buffer, pH 7.4) for 48-72 h. Fixed tissue samples were placed in 70% ethanol, paraffin embedded and slides were prepared. Slides were stained with hematoxylin and eosin (H&E) Immunohistochemical staining of the specific cell markers was done using the following antibodies: sheep anti-von Willebrand Factor (vWF)] (Serotec, Oxford, UK), mouse anti-pancytokeratin (clone AE1/AE3, Zymed, San-Francisco, USA) and mouse anti-human smooth muscle actin (SMA) (a SMC marker) (clone 1A4, Serotec, Oxford, UK).
Following verification of the functional integrity of post-PDT rat uteri, histological analysis was conducted in order to identify possible long-term damage resulting from the treatment. For this purpose, uteri in post-PDT and control manipulated rats were examined approximately 10 days after parturition (17-18 days after treatment). The respective uteri were stained by standard H&E (FIGS. 8B and 8F) as well as by anti-SMA antibody (a SMC marker, indicative of uterine wall integrity) (FIGS. 8C and 8G), anti-pan-cytokeratin antibody (an epithelial cell marker, indicative of endometrial integrity and absence of adhesions) (FIGS. 8D and 8H) and for vWF factor (an endothelial cell marker, illustrating blood vessel integrity) (FIGS. 8E and 8I). Uteri featured mild to moderate organizing hemorrhages in the endometrium and mesometrium, typical of post-gravid uteri (uteri after parturition). The only type of lesion found was the presence of a low number of hemosiderin-laden macrophages (siderophages) in the endometrium (where such a presence is normal) and in the mesometrium. This finding (siderophages) was highest in the DC uterus and milder in the post PDT uterus.

[4] = tested on: feto-placental unit; assay: In vivo placental PDT of a single feto-placental unit in the pregnant rat
Description: Materials and Methods (i) Animals. Pregnant 10-week old female Wistar rats (litter sizes of 10±2) (Harlan Laboratories, Rehovot, Israel) were delivered to the lab on embryonic day 7-12 (E7-E12) and allowed acclimatization of at least 48 h. All animal protocols were approved by the Weizmann Institutional Animal Care and Use Committee (IACUC).
(ii) Photosensitizer. Palladium 3^1-oxo-15 -methoxycarbonylmethylrhodobacterio-chlorin-13^1,17^3-di(2-N2-dimethylaminoethyl) amide (PMRDA), a water-soluble positively charged Pd-bacteriochlorophyll derivative disclosed in WO 2005/120573, was either synthesized in the inventor's laboratory by known methods or kindly provided by Steba Laboratories Ltd. (Israel), and used as a photosensitizer. The PMRDA was obtained as powder and kept under Argon (Ar) at −20° C. in the dark. Thereafter it was dissolved in methanol (MeOH) and, following spectrophotometric determination of concentration, was divided into aliquots, dried under Ar and kept at −20° C. in the dark until use.
(iii) Light source. A 1W 755 nm laser (CeramOptec, Bonn, Germany) was used. Light was delivered via a diffuser tipped optic fiber (Medlight S.A., Ecublens, Switzerland).
(iv) In vivo PDT protocol. A pregnant rat (E14) was anesthetized by isoflurane inhalation using the IMPAC6 system (VetEquip Inc., Pleasanton, Calif., USA) and placed on its back; the lower abdomen was shaved, washed with 70% ethanol and draped with sterile gauze. A midline incision (approximately 2 cm in length) in the lower abdomen was performed by cutting the skin and abdominal-muscle layers separately. Using round forceps, the uterus was gently drawn out from the abdominal cavity and placed on the gauze. The exposed uterus was continuously irrigated with sterile 0.9% NaCl solution during the procedure (for layout, see FIGS. 5A, 5B). One embryo was randomly selected for treatment and positioned with the placenta facing up. […] Anesthesia was discontinued and the rat was placed in a cage and closely monitored for at least 48 h. […]

[5] = rat
Description: (vi) Post PDT fertility assessment. Treated rats were allowed to reach parturition and pup weaning (P21). Fertile males were then introduced into the cages and rats were allowed to mate until pregnancy could be verified by daily vaginal smears and palpation. Pregnancy in both uterine horns was verified by magnetic resonance imaging (MRI) and/or by animal sacrifice and macroscopic examination.

[6] = tested on: extrauterine pregnancy; details: selected patients (mass less than 4 cm, no fetal heart beat, low β-hCG); cited from earlier work
[7] = subsequent fertility after 5-ALA PDT

NCC(=O)CCC(=O)O [5-ALA, 5-aminolevulinic acid]
treated animals that did not conceive following PDT ([1]; 5-ALA administered E10, examined E17): one third | fewer implanted embryos in the treated horn [1, 7]: ~28% | treated animals that developed pregnancies in the treated horn subsequently [1, 7]: 66.2% | pregnancy outcome in the treated uterine horn ([1]; systemic 5-ALA, whole horn illuminated): loss of all embryos in the treated uterine horn; also recorded: termination of all pregnancies in the treated horn

Palladium 3^1-oxo-15 -methoxycarbonylmethylrhodobacterio-chlorin-13^1,17^3-di(2-N2-dimethylaminoethyl) amide [PMRDA]
placental necrosis, share of placental mass involved ([2]; post-PMRDA-PDT placenta): approximately 70% | histological state of the embryo ([2]; post-PMRDA-PDT): fully necrotic embryo | state of the uterus adjacent to the treated placenta ([2]; post-PMRDA-PDT): appeared viable | siderophages in endometrium and mesometrium, post PDT uterus ([3]; PMRDA with illumination): milder | siderophages in endometrium and mesometrium, DC uterus ([3]; PMRDA without illumination): highest | necrosis / pathological findings in post-PDT uteri ([3]; uteri after parturition, H&E, SMA, pan-cytokeratin, vWF staining): No necrotic areas were found; also recorded: no pathological findings | pregnancy termination (embryo death rate) following PMRDA-PDT ([4]; 50 μg/30 μl intra-placental injection at E14, DLTI 120 sec, 755 nm 100 mW/cm^2 for 300 sec, assessed E16, 11/14 embryos): ~80% and 78.6% | embryo mortality rate, dark control (DC) ([4]; placental administration of photosensitizer without illumination, E14, assessed E16, 3/8 embryos): 37.5% | morbidity to the treated pregnant rat ([4]; rat, in vivo): did not result in noticeable morbidity | fertility following local in vivo placental PDT [5]: fertility of the rats is preserved | ability to conceive after PDT, parturition and re-mating ([5]; in vivo): all six rats pregnant | litter sizes of second pregnancy ([5]; in vivo): 6-11 | parturition of the remaining litter after treatment ([5]; in vivo): All six rats achieved normal parturition | pups delivered at parturition after treatment ([5]; in vivo): 6 to 11 pups

CN(Cc1cnc2nc(N)nc(N)c2n1)c1ccc(C(=O)N[C@@H](CCC(=O)O)C(=O)O)cc1 [methotrexate, Methotrexate]
success rate of medical therapy of EUP [6]: 70-95%
